The results in this text go back to paper PMC11202288, “The Structural Basis of the Activity Cliff in Modafinil-Based Dopamine Transporter Inhibitors” (Biomolecules, 2024).

Structures are written as SMILES. Where two headings read alike, the source gives them in different places.

This assay addresses T1, hDAT (human dopamine transporter) (Homo sapiens, UniProt Q01959).
T1 construct: gene SLC6A3; full-length human DAT stably expressed in HEK293 cells; membrane preparation
Nature of the assay: [3H]WIN35, […] competition binding, HEK293-hDAT membranes.

Where [1] appears, read: read-out: hDAT Ki ± SEM (nM) ^a (n).

T1 sequence (Q01959 whole entry): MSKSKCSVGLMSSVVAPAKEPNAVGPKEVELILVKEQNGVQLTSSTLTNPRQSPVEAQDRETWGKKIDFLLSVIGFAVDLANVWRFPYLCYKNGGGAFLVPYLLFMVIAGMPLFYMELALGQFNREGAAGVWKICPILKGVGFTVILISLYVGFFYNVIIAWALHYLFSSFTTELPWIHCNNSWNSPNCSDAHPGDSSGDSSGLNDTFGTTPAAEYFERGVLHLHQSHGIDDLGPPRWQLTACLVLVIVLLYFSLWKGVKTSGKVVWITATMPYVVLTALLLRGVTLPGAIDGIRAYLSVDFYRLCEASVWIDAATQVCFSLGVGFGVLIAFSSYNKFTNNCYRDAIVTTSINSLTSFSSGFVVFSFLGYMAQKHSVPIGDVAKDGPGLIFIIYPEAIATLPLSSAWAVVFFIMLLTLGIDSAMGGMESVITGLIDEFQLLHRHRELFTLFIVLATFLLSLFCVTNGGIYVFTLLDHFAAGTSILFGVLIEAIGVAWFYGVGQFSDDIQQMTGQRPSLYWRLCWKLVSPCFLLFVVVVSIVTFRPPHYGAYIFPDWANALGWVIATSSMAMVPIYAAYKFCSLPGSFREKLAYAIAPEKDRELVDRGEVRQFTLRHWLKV

For `CC(O)CN1CCN(CCSC(c2ccc(F)cc2)c2ccc(F)cc2)CC1` (stereo not drawn) [JJC8-089], the Ki under setting [1] was determined as 69.1 ± 10.5 nM.
For `CC(O)CN1[C@H](C)CN(CC[S+]([O-])C(c2ccc(F)cc2)c2ccc(F)cc2)C[C@@H]1C` (stereo partly drawn) [RDS4-010], the Ki under setting [1] was found to be 1570 ± 186 nM.
Consider `CC(O)CN1[C@H](C)CN(CCSC(c2ccc(F)cc2)c2ccc(F)cc2)C[C@@H]1C` (stereo partly drawn) [RDS3-094], for which the inhibition constant (Ki) amounted to 50.1 ± 6.51 nM.

As usually defined, the Ki is the equilibrium dissociation constant of an inhibitor or competing ligand from its target.
